Source: ChEMBL document CHEMBL1145498, “A systematic interaction map of validated kinase inhibitors with Ser/Thr kinases” (Proc Natl Acad Sci U S A, 2007)

molecular target: Tyrosine-protein kinase JAK1 (Homo sapiens) (UniProt P23458)
Sequence (P23458 whole entry): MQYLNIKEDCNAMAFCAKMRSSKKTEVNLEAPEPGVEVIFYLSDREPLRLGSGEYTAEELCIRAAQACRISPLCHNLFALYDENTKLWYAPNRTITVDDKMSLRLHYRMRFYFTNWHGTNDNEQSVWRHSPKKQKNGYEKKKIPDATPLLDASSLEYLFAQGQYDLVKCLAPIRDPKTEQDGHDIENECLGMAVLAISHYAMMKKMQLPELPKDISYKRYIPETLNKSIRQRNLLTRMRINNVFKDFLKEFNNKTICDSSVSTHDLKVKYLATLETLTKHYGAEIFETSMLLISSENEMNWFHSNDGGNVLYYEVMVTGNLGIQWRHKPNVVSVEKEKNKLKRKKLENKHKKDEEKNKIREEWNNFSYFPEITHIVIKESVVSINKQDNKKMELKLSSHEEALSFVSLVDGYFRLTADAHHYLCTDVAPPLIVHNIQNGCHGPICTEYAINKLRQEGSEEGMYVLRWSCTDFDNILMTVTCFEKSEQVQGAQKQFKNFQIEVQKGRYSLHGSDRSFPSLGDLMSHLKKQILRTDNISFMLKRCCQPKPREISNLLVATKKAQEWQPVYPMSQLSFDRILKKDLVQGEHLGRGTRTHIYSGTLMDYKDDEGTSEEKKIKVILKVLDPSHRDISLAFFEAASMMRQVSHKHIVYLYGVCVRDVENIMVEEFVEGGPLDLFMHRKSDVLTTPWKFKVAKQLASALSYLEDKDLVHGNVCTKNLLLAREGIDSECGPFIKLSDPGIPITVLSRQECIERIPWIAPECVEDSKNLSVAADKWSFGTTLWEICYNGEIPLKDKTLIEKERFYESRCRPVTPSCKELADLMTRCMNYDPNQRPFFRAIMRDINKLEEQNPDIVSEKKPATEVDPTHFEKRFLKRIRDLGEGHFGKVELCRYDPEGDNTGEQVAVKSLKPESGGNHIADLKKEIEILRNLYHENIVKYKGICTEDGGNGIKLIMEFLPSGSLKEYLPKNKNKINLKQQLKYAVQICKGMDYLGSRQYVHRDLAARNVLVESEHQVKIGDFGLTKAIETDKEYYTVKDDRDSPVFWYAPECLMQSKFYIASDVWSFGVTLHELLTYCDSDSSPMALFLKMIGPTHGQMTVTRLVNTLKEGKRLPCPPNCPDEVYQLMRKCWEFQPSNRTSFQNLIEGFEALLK

Structure (SMILES) | ΔTm [°C]
NCCNc1ncc(C(N)=O)c(Nc2cccc(C(F)(F)F)c2)n1 | 1.4
Cc1ccc(NC2=CC(=O)c3sc(C)nc3C2=O)cc1 | -0.9

Now from value to molecule:

ΔTm [°C] | Structure (SMILES)
1.9 | COc1cc2ncnc(Nc3ccc(NC(=O)c4ccccc4)cc3)c2cc1OC [ANILINOQUINAZOLINE1]
0.4 | COc1cc2c(cc1OC)-c1n[nH]c(Nc3cccc(F)c3)c1C2
1.7 | O=C(Nc1cccc(Nc2cc(Nc3cccc(C(F)(F)F)c3)ncn2)c1)C1CC1

molecular target: Serine/threonine-protein kinase 26 (Homo sapiens) (UniProt Q9P289)
Sequence (Q9P289 2-416 limits assumed): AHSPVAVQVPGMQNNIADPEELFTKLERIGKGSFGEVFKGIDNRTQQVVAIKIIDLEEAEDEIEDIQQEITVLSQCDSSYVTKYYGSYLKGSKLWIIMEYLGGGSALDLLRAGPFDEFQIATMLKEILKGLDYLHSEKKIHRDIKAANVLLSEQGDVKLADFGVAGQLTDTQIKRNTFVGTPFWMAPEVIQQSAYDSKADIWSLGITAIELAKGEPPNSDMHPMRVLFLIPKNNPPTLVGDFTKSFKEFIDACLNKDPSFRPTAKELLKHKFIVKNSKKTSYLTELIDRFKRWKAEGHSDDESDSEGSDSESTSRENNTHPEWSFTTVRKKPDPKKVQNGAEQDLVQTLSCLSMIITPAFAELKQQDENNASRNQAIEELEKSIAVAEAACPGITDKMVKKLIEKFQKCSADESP

Structure (SMILES) | ΔTm [°C]
NCCNc1ncc(C(N)=O)c(Nc2cccc(C(F)(F)F)c2)n1 | 1
Cc1ccc(NC2=CC(=O)c3sc(C)nc3C2=O)cc1 | -0.5

More lines, now with the values ahead:

ΔTm [°C] | Structure (SMILES)
1.8 | COc1cc2ncnc(Nc3ccc(NC(=O)c4ccccc4)cc3)c2cc1OC [ANILINOQUINAZOLINE1]
1.2 | COc1cc2c(cc1OC)-c1n[nH]c(Nc3cccc(F)c3)c1C2
1.7 | O=C(Nc1cccc(Nc2cc(Nc3cccc(C(F)(F)F)c3)ncn2)c1)C1CC1

molecular target: cAMP-dependent protein kinase catalytic subunit alpha (Homo sapiens) (UniProt P17612)

Structure (SMILES) | ΔTm [°C]
NCCNc1ncc(C(N)=O)c(Nc2cccc(C(F)(F)F)c2)n1 | 2.3
Cc1ccc(NC2=CC(=O)c3sc(C)nc3C2=O)cc1 | -0.4

Next, values leading:

ΔTm [°C] | Structure (SMILES)
1 | COc1cc2ncnc(Nc3ccc(NC(=O)c4ccccc4)cc3)c2cc1OC [ANILINOQUINAZOLINE1]
0.9 | COc1cc2c(cc1OC)-c1n[nH]c(Nc3cccc(F)c3)c1C2
1.1 | O=C(Nc1cccc(Nc2cc(Nc3cccc(C(F)(F)F)c3)ncn2)c1)C1CC1

molecular target: Serine/threonine-protein kinase PAK 6 (Homo sapiens) (UniProt Q9NQU5)

Structure (SMILES) | ΔTm [°C]
NCCNc1ncc(C(N)=O)c(Nc2cccc(C(F)(F)F)c2)n1 | 0.9
Cc1ccc(NC2=CC(=O)c3sc(C)nc3C2=O)cc1 | -2.1

Continued, values first:

ΔTm [°C] | Structure (SMILES)
0.6 | COc1cc2ncnc(Nc3ccc(NC(=O)c4ccccc4)cc3)c2cc1OC [ANILINOQUINAZOLINE1]
0.5 | COc1cc2c(cc1OC)-c1n[nH]c(Nc3cccc(F)c3)c1C2
-0.3 | O=C(Nc1cccc(Nc2cc(Nc3cccc(C(F)(F)F)c3)ncn2)c1)C1CC1

molecular target: T1, Mitogen-activated protein kinase kinase kinase 5 (Homo sapiens) (UniProt Q99683)
T1 sequence (whole entry): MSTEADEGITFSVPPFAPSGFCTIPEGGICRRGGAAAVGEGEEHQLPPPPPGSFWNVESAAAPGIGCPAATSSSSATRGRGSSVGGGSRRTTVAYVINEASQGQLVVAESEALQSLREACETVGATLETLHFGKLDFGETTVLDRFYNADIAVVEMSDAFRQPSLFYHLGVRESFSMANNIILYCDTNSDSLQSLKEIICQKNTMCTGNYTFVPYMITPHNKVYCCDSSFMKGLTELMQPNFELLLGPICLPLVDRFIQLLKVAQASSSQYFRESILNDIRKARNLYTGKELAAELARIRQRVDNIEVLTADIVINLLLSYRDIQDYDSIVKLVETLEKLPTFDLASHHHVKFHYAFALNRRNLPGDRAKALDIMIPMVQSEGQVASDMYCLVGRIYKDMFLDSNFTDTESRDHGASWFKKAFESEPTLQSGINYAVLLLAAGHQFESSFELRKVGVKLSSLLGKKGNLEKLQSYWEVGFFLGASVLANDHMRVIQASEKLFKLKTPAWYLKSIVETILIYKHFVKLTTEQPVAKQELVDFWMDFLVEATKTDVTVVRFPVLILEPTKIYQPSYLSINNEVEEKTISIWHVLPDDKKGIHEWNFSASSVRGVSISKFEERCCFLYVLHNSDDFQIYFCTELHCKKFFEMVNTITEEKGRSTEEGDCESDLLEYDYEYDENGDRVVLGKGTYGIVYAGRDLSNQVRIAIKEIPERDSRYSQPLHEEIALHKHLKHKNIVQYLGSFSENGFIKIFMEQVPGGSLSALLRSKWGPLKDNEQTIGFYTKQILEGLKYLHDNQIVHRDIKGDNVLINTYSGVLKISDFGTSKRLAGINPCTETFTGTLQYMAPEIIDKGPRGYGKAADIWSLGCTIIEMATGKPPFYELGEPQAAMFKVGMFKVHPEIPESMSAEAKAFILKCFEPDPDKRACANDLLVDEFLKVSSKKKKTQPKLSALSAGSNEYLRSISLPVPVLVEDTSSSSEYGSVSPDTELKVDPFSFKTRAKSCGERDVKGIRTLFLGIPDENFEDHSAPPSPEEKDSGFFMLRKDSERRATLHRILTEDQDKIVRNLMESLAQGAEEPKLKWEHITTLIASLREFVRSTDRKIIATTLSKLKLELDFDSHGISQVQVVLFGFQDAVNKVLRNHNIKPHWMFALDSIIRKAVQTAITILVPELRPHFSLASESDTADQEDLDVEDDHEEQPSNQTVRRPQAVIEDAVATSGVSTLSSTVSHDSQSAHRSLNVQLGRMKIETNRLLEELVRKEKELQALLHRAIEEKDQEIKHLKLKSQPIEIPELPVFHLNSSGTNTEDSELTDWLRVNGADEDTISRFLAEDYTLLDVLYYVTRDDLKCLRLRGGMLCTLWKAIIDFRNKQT

Structure (SMILES) | ΔTm [°C]
NCCNc1ncc(C(N)=O)c(Nc2cccc(C(F)(F)F)c2)n1 | -0.1
Cc1ccc(NC2=CC(=O)c3sc(C)nc3C2=O)cc1 | -0.2

Next, values leading:

ΔTm [°C] | Structure (SMILES)
0.1 | COc1cc2ncnc(Nc3ccc(NC(=O)c4ccccc4)cc3)c2cc1OC [ANILINOQUINAZOLINE1]
4 | COc1cc2c(cc1OC)-c1n[nH]c(Nc3cccc(F)c3)c1C2
0.9 | O=C(Nc1cccc(Nc2cc(Nc3cccc(C(F)(F)F)c3)ncn2)c1)C1CC1

molecular target: Casein kinase I isoform gamma-3 (Homo sapiens) (UniProt Q9Y6M4)
Sequence (Q9Y6M4 whole entry, looked up, canonical isoform): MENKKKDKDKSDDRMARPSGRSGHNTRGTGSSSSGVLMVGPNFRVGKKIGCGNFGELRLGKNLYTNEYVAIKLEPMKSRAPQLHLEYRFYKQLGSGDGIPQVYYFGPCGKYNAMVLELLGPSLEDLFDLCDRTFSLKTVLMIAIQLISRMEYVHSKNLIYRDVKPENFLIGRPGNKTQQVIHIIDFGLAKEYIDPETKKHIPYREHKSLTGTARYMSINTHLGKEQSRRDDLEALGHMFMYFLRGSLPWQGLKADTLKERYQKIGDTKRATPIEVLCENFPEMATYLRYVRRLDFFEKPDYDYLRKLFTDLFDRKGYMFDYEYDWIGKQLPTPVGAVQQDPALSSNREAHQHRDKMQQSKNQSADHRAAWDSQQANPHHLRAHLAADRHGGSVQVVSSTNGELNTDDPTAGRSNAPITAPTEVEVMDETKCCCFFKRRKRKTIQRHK

Structure (SMILES) | ΔTm [°C]
NCCNc1ncc(C(N)=O)c(Nc2cccc(C(F)(F)F)c2)n1 | 5.9
Cc1ccc(NC2=CC(=O)c3sc(C)nc3C2=O)cc1 | -4.3

Second part, the molecule after the results:

ΔTm [°C] | Structure (SMILES)
0.3 | COc1cc2ncnc(Nc3ccc(NC(=O)c4ccccc4)cc3)c2cc1OC [ANILINOQUINAZOLINE1]
0.8 | COc1cc2c(cc1OC)-c1n[nH]c(Nc3cccc(F)c3)c1C2
0.2 | O=C(Nc1cccc(Nc2cc(Nc3cccc(C(F)(F)F)c3)ncn2)c1)C1CC1

molecular target: Serine/threonine-protein kinase 38 (Homo sapiens) (UniProt Q15208)
Sequence (Q15208 2-465 limits assumed): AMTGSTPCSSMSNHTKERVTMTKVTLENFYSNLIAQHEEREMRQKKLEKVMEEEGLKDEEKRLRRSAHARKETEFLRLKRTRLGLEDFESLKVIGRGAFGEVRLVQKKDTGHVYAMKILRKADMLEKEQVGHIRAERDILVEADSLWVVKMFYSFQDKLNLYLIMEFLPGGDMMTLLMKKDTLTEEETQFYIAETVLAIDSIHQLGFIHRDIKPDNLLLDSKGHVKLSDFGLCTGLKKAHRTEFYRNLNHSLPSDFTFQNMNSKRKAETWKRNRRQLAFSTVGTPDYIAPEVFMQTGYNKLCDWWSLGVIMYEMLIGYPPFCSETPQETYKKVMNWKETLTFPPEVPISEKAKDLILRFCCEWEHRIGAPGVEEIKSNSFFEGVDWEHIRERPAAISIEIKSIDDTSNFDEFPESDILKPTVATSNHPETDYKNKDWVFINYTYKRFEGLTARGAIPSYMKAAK

Structure (SMILES) | ΔTm [°C]
NCCNc1ncc(C(N)=O)c(Nc2cccc(C(F)(F)F)c2)n1 | 2.5
Cc1ccc(NC2=CC(=O)c3sc(C)nc3C2=O)cc1 | -1

More lines, now with the values ahead:

ΔTm [°C] | Structure (SMILES)
0.9 | COc1cc2ncnc(Nc3ccc(NC(=O)c4ccccc4)cc3)c2cc1OC [ANILINOQUINAZOLINE1]
2.4 | COc1cc2c(cc1OC)-c1n[nH]c(Nc3cccc(F)c3)c1C2
1.5 | O=C(Nc1cccc(Nc2cc(Nc3cccc(C(F)(F)F)c3)ncn2)c1)C1CC1

molecular target: Serine/threonine-protein kinase pim-2 (Homo sapiens, UniProt Q9P1W9)
Sequence (Q9P1W9 whole entry, looked up): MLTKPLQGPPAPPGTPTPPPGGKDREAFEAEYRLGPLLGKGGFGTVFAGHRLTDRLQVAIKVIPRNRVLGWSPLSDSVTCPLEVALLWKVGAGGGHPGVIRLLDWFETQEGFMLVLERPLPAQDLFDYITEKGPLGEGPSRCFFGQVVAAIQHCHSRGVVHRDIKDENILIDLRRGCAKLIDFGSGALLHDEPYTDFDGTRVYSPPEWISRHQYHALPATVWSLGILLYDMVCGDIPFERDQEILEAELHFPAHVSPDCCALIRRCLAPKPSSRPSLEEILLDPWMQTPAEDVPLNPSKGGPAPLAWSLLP

Structure (SMILES) | ΔTm [°C]
NCCNc1ncc(C(N)=O)c(Nc2cccc(C(F)(F)F)c2)n1 | 0.7
Cc1ccc(NC2=CC(=O)c3sc(C)nc3C2=O)cc1 | -0.6

Results, then the molecule that gave them:

ΔTm [°C] | Structure (SMILES)
0.3 | COc1cc2ncnc(Nc3ccc(NC(=O)c4ccccc4)cc3)c2cc1OC [ANILINOQUINAZOLINE1]
0.2 | COc1cc2c(cc1OC)-c1n[nH]c(Nc3cccc(F)c3)c1C2
2.3 | O=C(Nc1cccc(Nc2cc(Nc3cccc(C(F)(F)F)c3)ncn2)c1)C1CC1

molecular target: Serine/threonine-protein kinase 10 (Homo sapiens) (UniProt O94804)
Sequence (O94804 whole entry, looked up): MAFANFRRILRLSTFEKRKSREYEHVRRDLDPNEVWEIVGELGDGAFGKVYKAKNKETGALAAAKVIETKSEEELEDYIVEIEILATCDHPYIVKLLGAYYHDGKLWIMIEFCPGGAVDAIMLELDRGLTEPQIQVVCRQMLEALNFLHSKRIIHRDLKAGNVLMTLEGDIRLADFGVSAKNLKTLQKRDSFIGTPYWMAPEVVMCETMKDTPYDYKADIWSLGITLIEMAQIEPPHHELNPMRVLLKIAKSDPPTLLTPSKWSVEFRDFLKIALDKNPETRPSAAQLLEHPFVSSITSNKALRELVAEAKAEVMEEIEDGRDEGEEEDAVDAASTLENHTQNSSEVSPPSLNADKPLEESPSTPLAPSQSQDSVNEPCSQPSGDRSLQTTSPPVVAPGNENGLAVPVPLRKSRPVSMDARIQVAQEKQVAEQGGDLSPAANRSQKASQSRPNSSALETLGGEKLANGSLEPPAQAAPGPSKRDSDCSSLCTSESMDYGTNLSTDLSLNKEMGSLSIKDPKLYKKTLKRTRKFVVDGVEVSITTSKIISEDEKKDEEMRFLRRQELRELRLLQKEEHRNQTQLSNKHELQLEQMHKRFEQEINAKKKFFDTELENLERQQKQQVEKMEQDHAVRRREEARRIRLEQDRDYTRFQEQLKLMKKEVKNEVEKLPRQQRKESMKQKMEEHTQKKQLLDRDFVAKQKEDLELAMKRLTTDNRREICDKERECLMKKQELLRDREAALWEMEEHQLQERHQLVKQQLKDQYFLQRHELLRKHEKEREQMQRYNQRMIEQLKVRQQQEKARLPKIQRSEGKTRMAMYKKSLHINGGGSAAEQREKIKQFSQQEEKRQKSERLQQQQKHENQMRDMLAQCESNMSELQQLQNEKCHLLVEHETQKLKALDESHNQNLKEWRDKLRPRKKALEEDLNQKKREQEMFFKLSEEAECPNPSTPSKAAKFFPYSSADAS

Structure (SMILES) | ΔTm [°C]
NCCNc1ncc(C(N)=O)c(Nc2cccc(C(F)(F)F)c2)n1 | 2.8
Cc1ccc(NC2=CC(=O)c3sc(C)nc3C2=O)cc1 | -0.7

The remaining lines, values ahead:

ΔTm [°C] | Structure (SMILES)
0.1 | COc1cc2ncnc(Nc3ccc(NC(=O)c4ccccc4)cc3)c2cc1OC [ANILINOQUINAZOLINE1]
2.5 | COc1cc2c(cc1OC)-c1n[nH]c(Nc3cccc(F)c3)c1C2
0 | O=C(Nc1cccc(Nc2cc(Nc3cccc(C(F)(F)F)c3)ncn2)c1)C1CC1

molecular target: 5'-AMP-activated protein kinase catalytic subunit alpha-2 (Homo sapiens) (UniProt P54646)
Sequence (P54646 whole entry, looked up): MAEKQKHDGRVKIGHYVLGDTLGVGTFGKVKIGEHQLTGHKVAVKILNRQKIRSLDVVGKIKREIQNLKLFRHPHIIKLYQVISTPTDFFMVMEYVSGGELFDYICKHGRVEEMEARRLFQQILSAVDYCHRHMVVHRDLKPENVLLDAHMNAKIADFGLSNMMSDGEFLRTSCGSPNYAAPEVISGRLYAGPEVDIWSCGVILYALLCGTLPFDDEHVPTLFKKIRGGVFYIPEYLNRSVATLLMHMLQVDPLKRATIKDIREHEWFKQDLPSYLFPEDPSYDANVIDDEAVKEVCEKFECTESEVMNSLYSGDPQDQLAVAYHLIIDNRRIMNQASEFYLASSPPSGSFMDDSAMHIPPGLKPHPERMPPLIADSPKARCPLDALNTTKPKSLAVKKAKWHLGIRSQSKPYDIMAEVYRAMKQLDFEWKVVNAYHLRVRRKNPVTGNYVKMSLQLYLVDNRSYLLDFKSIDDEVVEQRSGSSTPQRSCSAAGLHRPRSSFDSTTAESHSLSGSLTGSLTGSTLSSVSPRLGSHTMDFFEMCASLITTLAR

Structure (SMILES) | ΔTm [°C]
NCCNc1ncc(C(N)=O)c(Nc2cccc(C(F)(F)F)c2)n1 | 0.3
Cc1ccc(NC2=CC(=O)c3sc(C)nc3C2=O)cc1 | 0

The remaining lines, values ahead:

ΔTm [°C] | Structure (SMILES)
0.8 | COc1cc2ncnc(Nc3ccc(NC(=O)c4ccccc4)cc3)c2cc1OC [ANILINOQUINAZOLINE1]
-0.3 | COc1cc2c(cc1OC)-c1n[nH]c(Nc3cccc(F)c3)c1C2
-3.7 | O=C(Nc1cccc(Nc2cc(Nc3cccc(C(F)(F)F)c3)ncn2)c1)C1CC1

molecular target: Calcium/calmodulin-dependent protein kinase kinase 2 (Homo sapiens, UniProt Q96RR4)

Structure (SMILES) | ΔTm [°C]
NCCNc1ncc(C(N)=O)c(Nc2cccc(C(F)(F)F)c2)n1 | 0.6
Cc1ccc(NC2=CC(=O)c3sc(C)nc3C2=O)cc1 | -2.4

Next, values leading:

ΔTm [°C] | Structure (SMILES)
1.3 | COc1cc2ncnc(Nc3ccc(NC(=O)c4ccccc4)cc3)c2cc1OC [ANILINOQUINAZOLINE1]
1.6 | COc1cc2c(cc1OC)-c1n[nH]c(Nc3cccc(F)c3)c1C2
1.7 | O=C(Nc1cccc(Nc2cc(Nc3cccc(C(F)(F)F)c3)ncn2)c1)C1CC1

molecular target: Cyclin-dependent kinase 16 (Homo sapiens) (UniProt Q00536)
Sequence (Q00536 whole entry): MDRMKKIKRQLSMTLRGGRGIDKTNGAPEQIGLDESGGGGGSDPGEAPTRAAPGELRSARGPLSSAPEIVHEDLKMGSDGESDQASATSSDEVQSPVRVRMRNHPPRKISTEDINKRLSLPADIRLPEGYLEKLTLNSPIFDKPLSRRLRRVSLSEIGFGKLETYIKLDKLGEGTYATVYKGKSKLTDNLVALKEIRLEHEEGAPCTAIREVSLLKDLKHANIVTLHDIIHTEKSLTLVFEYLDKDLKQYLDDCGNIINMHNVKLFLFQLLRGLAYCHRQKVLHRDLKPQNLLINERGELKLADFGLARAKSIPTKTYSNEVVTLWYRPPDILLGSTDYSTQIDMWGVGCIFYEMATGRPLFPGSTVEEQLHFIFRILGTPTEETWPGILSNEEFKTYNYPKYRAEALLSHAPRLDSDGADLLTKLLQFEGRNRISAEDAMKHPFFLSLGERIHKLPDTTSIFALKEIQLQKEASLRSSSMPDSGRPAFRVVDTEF

Structure (SMILES) | ΔTm [°C]
NCCNc1ncc(C(N)=O)c(Nc2cccc(C(F)(F)F)c2)n1 | 0.1
Cc1ccc(NC2=CC(=O)c3sc(C)nc3C2=O)cc1 | -0.9

Second part, the molecule after the results:

ΔTm [°C] | Structure (SMILES)
-1.4 | COc1cc2ncnc(Nc3ccc(NC(=O)c4ccccc4)cc3)c2cc1OC [ANILINOQUINAZOLINE1]
-0.3 | COc1cc2c(cc1OC)-c1n[nH]c(Nc3cccc(F)c3)c1C2
3.9 | O=C(Nc1cccc(Nc2cc(Nc3cccc(C(F)(F)F)c3)ncn2)c1)C1CC1

molecular target: T2, Serine/threonine-protein kinase 17A (Homo sapiens) (UniProt Q9UEE5)
T2 sequence (whole entry): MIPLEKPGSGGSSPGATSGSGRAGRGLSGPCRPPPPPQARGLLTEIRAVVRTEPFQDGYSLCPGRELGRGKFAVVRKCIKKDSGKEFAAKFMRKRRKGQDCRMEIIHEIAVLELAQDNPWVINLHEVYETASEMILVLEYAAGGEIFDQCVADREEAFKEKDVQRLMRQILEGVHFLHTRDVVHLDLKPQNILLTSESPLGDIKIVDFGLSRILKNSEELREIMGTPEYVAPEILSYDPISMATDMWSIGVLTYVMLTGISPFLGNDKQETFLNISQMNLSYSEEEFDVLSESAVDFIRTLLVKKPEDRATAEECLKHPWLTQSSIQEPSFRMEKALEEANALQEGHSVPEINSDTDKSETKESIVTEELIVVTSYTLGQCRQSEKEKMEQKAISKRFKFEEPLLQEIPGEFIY

Structure (SMILES) | ΔTm [°C]
NCCNc1ncc(C(N)=O)c(Nc2cccc(C(F)(F)F)c2)n1 | 3.2
Cc1ccc(NC2=CC(=O)c3sc(C)nc3C2=O)cc1 | -0.8

The remaining lines, values ahead:

ΔTm [°C] | Structure (SMILES)
2.1 | COc1cc2ncnc(Nc3ccc(NC(=O)c4ccccc4)cc3)c2cc1OC [ANILINOQUINAZOLINE1]
1.3 | COc1cc2c(cc1OC)-c1n[nH]c(Nc3cccc(F)c3)c1C2
1.5 | O=C(Nc1cccc(Nc2cc(Nc3cccc(C(F)(F)F)c3)ncn2)c1)C1CC1

molecular target: Serine/threonine-protein kinase Nek6 (Homo sapiens) (UniProt Q9HC98)

Structure (SMILES) | ΔTm [°C]
NCCNc1ncc(C(N)=O)c(Nc2cccc(C(F)(F)F)c2)n1 | 2
Cc1ccc(NC2=CC(=O)c3sc(C)nc3C2=O)cc1 | -0.6

The remaining lines, values ahead:

ΔTm [°C] | Structure (SMILES)
0.5 | COc1cc2ncnc(Nc3ccc(NC(=O)c4ccccc4)cc3)c2cc1OC [ANILINOQUINAZOLINE1]
0.1 | COc1cc2c(cc1OC)-c1n[nH]c(Nc3cccc(F)c3)c1C2
-0.4 | O=C(Nc1cccc(Nc2cc(Nc3cccc(C(F)(F)F)c3)ncn2)c1)C1CC1
